In ChEMBL document CHEMBL1201862, “PubChem BioAssay data set” (2004):
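A five-concentration, 48-hour dose response in 96-well plates underlies each endpoint, interpolated linearly between surrounding concentrations. At the GI50, growth is halved.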 Activity calls are given as the source filed them. No stated cut-off is given here; in the data, active = GI50 up to about 1.1 µM and inactive = higher.

How the values were obtained:
Experiment in all cases: NCI-60 cell line screen, 48 h
[1] = test system: RXF 393
[2] = test system: Malme-3M
[3] = test system: SK-OV-3
[4] = test system: UO-31
[5] = test system: NCI-H23
[6] = test system: NCI/ADR-RES
[7] = test system: HCT-116
[8] = test system: HT-29
[9] = test system: SW-620
[10] = test system: U-251
[11] = test system: MDA-MB-435
[12] = test system: HCC 2998
[13] = test system: ACHN
[14] = test system: NCI-H522
[15] = test system: MDA-MB-231
[16] = test system: MCF7
[17] = test system: HCT-15
[18] = test system: MDA-N
[19] = test system: EKVX
[20] = test system: PC-3
[21] = test system: LOX IMVI
[22] = test system: K562
[23] = test system: SF-539
[24] = test system: KM12
[25] = test system: SF-268
[26] = test system: SK-MEL-5
[27] = test system: TK-10
[28] = test system: MOLT-4
[29] = test system: COLO 205
[30] = test system: A498
[31] = test system: UACC-62
[32] = test system: A549
[33] = test system: OVCAR-4
[34] = test system: T47D
[35] = test system: CCRF-CEM
[36] = test system: DU-145
[37] = test system: SK-MEL-28
[38] = test system: 786-0
[39] = test system: NCI-H460
[40] = test system: RPMI-8226
[41] = test system: OVCAR-8
[42] = test system: HOP-62
[43] = test system: SR
[44] = test system: IGROV-1
[45] = test system: SNB-75
[46] = test system: SF-295
[47] = test system: NCI-H226
[48] = test system: Hs-578T
[49] = test system: OVCAR-5
[50] = test system: CAKI-1
[51] = test system: SNB-19
[52] = test system: M14
[53] = test system: SN12C
[54] = test system: OVCAR-3
[55] = test system: HL-60
[56] = test system: SK-MEL-2
[57] = test system: HOP-92
[58] = test system: UACC-257

Measured: GI50

CN1CCC/C1=N\C#N
> 100 µM: [17]
inactive: [1] > 100 µM | [2] > 100 µM | [3] > 100 µM | [4] > 100 µM | [5] > 100 µM | [6] > 100 µM | [7] > 100 µM | [8] > 100 µM | [9] > 100 µM | [10] > 100 µM | [11] > 100 µM | [12] > 100 µM | [13] > 100 µM | [14] > 100 µM | [15] > 100 µM | [16] > 100 µM | [18] > 100 µM | [19] > 100 µM | [20] > 100 µM | [21] > 100 µM | [22] > 100 µM | [23] > 100 µM | [24] > 100 µM | [25] > 100 µM | [26] > 100 µM | [27] > 100 µM | [28] > 100 µM | [29] > 100 µM | [30] > 100 µM | [31] > 100 µM | [32] > 100 µM | [33] > 100 µM | [34] > 100 µM | [35] > 100 µM | [36] > 100 µM | [37] > 100 µM | [38] > 100 µM | [39] > 100 µM | [40] > 100 µM | [41] > 100 µM | [42] > 100 µM | [43] > 100 µM | [44] > 100 µM | [45] > 100 µM | [46] > 100 µM | [47] > 100 µM | [48] > 100 µM | [49] > 100 µM | [50] > 100 µM | [51] > 100 µM | [52] > 100 µM | [53] > 100 µM | [54] > 100 µM | [55] > 100 µM | [56] > 100 µM

CC(=O)Oc1ccn2nc(C)c(Cc3c(C)nn4ccc(OC(C)=O)cc34)c2c1
> 100 µM: [17]
inactive: [2] > 100 µM | [5] > 100 µM | [6] > 100 µM | [7] > 100 µM | [8] > 100 µM | [9] > 100 µM | [10] 62.7 µM | [11] 25.1 µM | [13] 98.2 µM | [14] 33.2 µM | [15] > 100 µM | [16] > 10 µM | [18] > 10 µM | [19] > 100 µM | [20] > 10 µM | [21] 79.1 µM | [22] 37.8 µM | [23] 51.4 µM | [24] > 100 µM | [25] > 100 µM | [26] > 100 µM | [27] > 100 µM | [28] 49.8 µM | [31] 98.2 µM | [32] > 100 µM | [33] > 100 µM | [34] > 100 µM | [35] 27.9 µM | [36] > 100 µM | [37] > 100 µM | [38] > 100 µM | [39] 50.9 µM | [57] > 100 µM | [41] > 100 µM | [42] 48 µM | [43] > 100 µM | [44] > 100 µM | [45] 54.8 µM | [46] 23 µM | [47] > 100 µM | [48] 32.4 µM | [49] > 100 µM | [50] 51.8 µM | [51] > 100 µM | [52] > 100 µM | [58] 47.1 µM | [53] > 100 µM | [54] > 100 µM | [55] 39.1 µM | [56] 34.6 µM
